Experimental data from patent US7892764B2, “System for seizure suppression” (priority 2006, dated 2011).

How the values were obtained:
mouse hippocampal slices = experiment: Basal synaptic transmission: fEPSP in hippocampal CA1 region in the presence of Mg2+; assay type: cell-based; conditions: amiloride 100 μM
Description: FIG. 6. Representative field-EPSPs and summary data showing the lack of inhibition by amiloride on basal synaptic transmission. In the presence of Mg^2+ (1.0 mM), stimulation of Schaffer collaterals induced field excitatory postsynaptic potential (fEPSP) in the CA1 region of the hippocampus.
Preparation of hippocampal slices and brain slice recording. Hippocampal slices were obtained from 8- to 10-week-old mice. The protocol for brain-slice recording was approved by the Institutional Animal Care and Use Committee of Legacy Research. Animals were deeply anesthetized with isoflurane and decapitated. Brains were quickly removed and placed in ice-cold solution that contained: 125 mM sucrose, 2.5 mM KCl, 26 mM NaHCO3, 1.25 mM NaHPO4, 6.0 mM […], 0.5 mM CaCl2, and 10 mM glucose, and was saturated with 95% O2 and 5% CO2 (pH 7.4). […]
Following ˜60 min of incubation at room temperature, individual slices were transferred to a submerged slice chamber with a volume of 0.5 mL (Warner Instruments, Hamden, Conn.) and perfused with oxygenated aCSF (35° C.) at a rate of 3-4 mL/min. […] The population spike and the field excitatory postsynaptic potentials (fEPSP) were recorded in stratum pyramidale and striatum radiatum of hippocampal CA1 region, by stimulating Schaffer Collaterals.

C57BL/6 mice = experiment: In vivo kainic acid (KA)-induced seizure model, EEG and TUNEL staining; parameters: species or system mouse
Description: In an in vivo model of epilepsy (Araki et al., 2002), WT and ASIC1^−/− C57BL/6 mice. 20-25 g, had unilateral microinjection of kainic acid (KA) into the basolateral amygdala nucleus. […] Identical KA injection in ASIC1^−/− mice produced attenuated polyspike EEG activity (total duration: 109.8±30.8 sec, n=6, p<0.01 versus WT control, FIG. 8D).
TUNEL staining. Following cryostat sectioning, slices were air-dried, fixed in 10% formalin for 15 min, washed three times in PBS, permeabilized in 3% Triton X-100 for 20 min, and washed three times in PBS. Slices were subsequently incubated with a reaction mixture that contained FITC-dUTP and 300 U/mL terminal deoxy-transferase (TdT) for 90 min at 37° C. Cultures were then viewed with a fluorescent microscope at an excitation/emission wavelength of 500/550 nm (green) for FITC-TUNEL labeled cells.
Intracerebroventricular injection in mice. The procedure was performed as described in our previous studies (Pignataro et al., 2007; Xiong et al., 2004). A burr hole was drilled through the skull and a cannula inserted in the right lateral ventricle. The cannula was inserted stereotactically at 0.5 mm posterior, 1.0 mm lateral, and 3.0 mm ventral to the bregma, 0.5 μL of aCSF, amiloride, or PcTX1 was infused 60 min before KA injection.
In vivo KA-induced seizure model. A KA-induced in vivo seizure model was implemented as described in our previous studies (Araki et al., 2002). The protocol for seizure-induction in vivo in mice was approved by the Institutional Animal Care and Use Committee of Legacy Research. Adult male wild-type and ASIC1^−/− mice with genomic background of C57BL/6, 20-25 g in weight, were used for seizure induction by unilateral microinjection of KA into the basolateral amygdala nucleus based on stereotactic coordinates (AP −0.94 mm, L −2.85 mm, and V −3.75 mm relative to the Bregma). After anesthesia and catheterization of the femoral vein, animals were placed in a stereotactic frame modified with a headpiece compatible for the mouse (Kopf Instruments) and kept under anesthesia using a mixture of 68.5% N2O, 30% O2, and 1.5% isoflurane. Rectal body temperature was kept at 37±1° C. during and after the operation using either a heating pad or heating lamp (Harvard Instruments, Holiiston, Mass.). Using dental cement (Plastics One, Inc.), three skull-mounted recording electrodes were affixed to mice (Plastics One, Inc., Roanoke, Va.) and a 26-gauge steel guide cannula over the intact dura. […] The EEG was monitored for 30 min using a Grass Electroencephalogram (Model 8-16), and lorazepam (6 mg/kg, i.p.) Was then administered to terminate seizures. The EEG was further monitored for up to 30 min to ensure seizure cessation. The duration of polyspike (type 4) EEG activity for each mouse was calculated blind offline. […]

[1] = icv 0.5 μL aCSF containing PcTX1 500 ng/mL, 60 min before KA
[2] = icv PcTX1 500 ng/mL, 24 hr after KA injection

| Compound | effect on amplitude or slope of normal fEPSP (mouse hippocampal slices) | duration of polyspike (type-4) EEG activity in 30 min (C57BL/6 mice; [1]) [s] | mice showing polyspike EEG activity (C57BL/6 mice; [1]) | average TUNEL positive cells in CA3 (C57BL/6 mice; [2]) | mice showing any CA3 injury (C57BL/6 mice; [2]) |
| --- | --- | --- | --- | --- | --- |
| NC(N)=NC(=O)c1nc(Cl)c(N)nc1N [amiloride, 3,5-diamino-6-chloro-N(diaminomethylidene)pyrazine-2-carboxamide] | did not affect |  |  |  |  |
| Psalmotoxin 1 [PcTX1] |  | 128.3 ± 60.3 | two out of six | 21.8±14.1 | two out of six |
